Assay results as given in US7501430B2 (ArQule, Inc., priority 2006, dated 2009).
Read-outs that look alike come from different tables or passages of the source.

Assays:
mutant B-RAF = target: T1, mutant B-RAF (Homo sapiens, UniProt P15056, V600E); assay: RAF biochemical assay (MEK-1 phosphorylation, anti-phospho MEK1/2 detection)
T1 construct: purchased Upstate (Charlottesville, Va.)
Summary of the method: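 Detection is by ELISA: after a 30 min room-temperature reaction, plate-captured GST-MEK-1 is probed with anti-phospho MEK1/2, then an AP-tagged secondary antibody with fluorescent Attophos read-out.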

[1] = tested on: Colo-205 human colon cancer cell line (B-RAF V600E); assay: MTS cell growth assay, Colo-205; assay type: cell-based; details: Colo205 cells, 72 hours
Source text: (§1) Compounds of the present invention have been tested for activity against a variety of cancer cell lines. The ability of compounds to inhibit cell growth in this assay is correlated with the reduction of dehydrogenase enzyme activity found in metabolically active cells.
(§2) Materials: A375 (a human melanoma cell line that harbors the B-RAF mutation V600E), Colo-205 (a human colon cancer cell line that harbors the B-RAF mutation V600E), DLD1 (a human colon cancer cell line that harbors the K-ras mutation G13D), SK-MEL-2 (a human melanoma cell line that harbors the N-ras mutation Q61R), SK-MEL-28 (a human melanoma cell line that harbors the B-RAF mutation V600E), and SW480 (a human colon cancer cell line that harbors the K-ras mutation G12V) cells from ATCC were maintained at 37° C., 5% CO2 in DMEM media supplemented with 10% fetal bovine serum, penicillin/streptomycin and fungizone (Invitrogen). NCM460 (Incell), a normal colon epithelial cell line, and human mammary epithelial cells (Cambrex) were maintained at 37° C., 5% CO2 in DMEM and HEBM media (Cambrex), respectively.
(§3) Methods: Test compounds were dissolved and diluted to 300× in DMSO then diluted 1:40 in DMEM. Cells were seeded into 96-well tissue culture plates at 2-5×10^3 per well and cultured at 37° C. for 24 h. Cells were incubated with test compounds for 72 hours followed by incubation with tetrazolium compound (3-(4,5-dimethylthiazol-2-yl)-5-(3-carboxymethoxyphenyl)-2-(4-sulfophenyl)-2H-tetrazolium, inner salt; MTS) and the electron coupling reagent, phenazine methosulfate (PMS) for 4 hr. […] The measurement of the absorbance of the formazan was assessed using an ENVISION™ (Perkin Elmer) microplate reader at 492 nm. The calculated IC50 value is the concentration of the test compound that causes a 50% decrease in the absorbance.

[2] = tested on: NCM460 normal colon epithelial cell line; assay: MTS cell growth assay, NCM460; assay type: cell-based; details: Homo sapiens, NCM460 normal cells, 72 hours
Source text: as §1, §2, §3

[3] = tested on: human mammary epithelial cells (HMEC, normal); assay: MTS cell growth assay, HMEC; assay type: cell-based; details: 72 hours
Source text: as §1, §2, §3

[4] = tested on: SK-MEL-2 human melanoma cell line (N-ras Q61R); assay: MTS cell growth assay, SK-MEL-2; assay type: cell-based; details: SKMEL2 cells, 72 hours, read-out: IC50 SKMEL2 NRAS (Q61R)
Source text: as §1, §2, §3

[5] = tested on: A375 human melanoma cell line (B-RAF V600E); assay: MTS cell growth assay, A375; assay type: cell-based; details: A-375, A375 cells, 72 hours
Source text: as §1, §2, §3

[6] = tested on: DLD1 human colon cancer cell line (K-ras G13D); assay: MTS cell growth assay, DLD1; assay type: cell-based; details: DLD-1, DLD1 cells, 72 hours, read-out: IC50 DLD1 KRAS (G13D)
Source text: as §1, §2, §3

[7] = tested on: SK-MEL-28 human melanoma cell line (B-RAF V600E); assay: MTS cell growth assay, SK-MEL-28; assay type: cell-based; details: SKMEL28 cells, 72 hours
Source text: as §1, §2, §3

[8] = tested on: SW480 human colon cancer cell line (K-ras G12V); assay: MTS cell growth assay, SW480; assay type: cell-based; details: SW480 cells, 72 hours, read-out: IC50 SW480 KRAS (G12V)
Source text: as §1, §2, §3

[9] = read-out: Mutant B-RAF IC50 (uM) or % inhibition

T1 sequence (P15056 whole entry V600E): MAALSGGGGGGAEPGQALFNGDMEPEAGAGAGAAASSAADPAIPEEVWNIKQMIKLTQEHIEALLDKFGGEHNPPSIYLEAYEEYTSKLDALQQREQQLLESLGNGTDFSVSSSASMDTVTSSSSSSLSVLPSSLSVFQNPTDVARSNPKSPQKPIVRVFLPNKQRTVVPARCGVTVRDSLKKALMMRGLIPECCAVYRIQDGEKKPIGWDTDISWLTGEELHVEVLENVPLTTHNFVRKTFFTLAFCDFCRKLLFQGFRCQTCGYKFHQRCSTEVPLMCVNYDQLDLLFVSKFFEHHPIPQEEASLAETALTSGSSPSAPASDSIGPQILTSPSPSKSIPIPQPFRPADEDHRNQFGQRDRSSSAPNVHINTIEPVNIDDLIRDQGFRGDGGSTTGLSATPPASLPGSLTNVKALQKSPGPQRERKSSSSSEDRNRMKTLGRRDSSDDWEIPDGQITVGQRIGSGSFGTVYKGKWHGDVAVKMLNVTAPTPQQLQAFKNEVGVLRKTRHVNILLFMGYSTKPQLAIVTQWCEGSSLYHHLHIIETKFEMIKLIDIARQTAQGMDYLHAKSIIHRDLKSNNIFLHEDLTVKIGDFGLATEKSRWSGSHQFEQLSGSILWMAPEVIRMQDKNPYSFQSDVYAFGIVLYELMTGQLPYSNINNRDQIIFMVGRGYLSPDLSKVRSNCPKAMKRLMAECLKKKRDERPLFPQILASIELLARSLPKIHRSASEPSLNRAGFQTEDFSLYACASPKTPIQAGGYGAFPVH

Row | IC50 (mutant B-RAF; read-out: Mutant B-RAF IC50) [µM] | IC50 [1] [µM] | IC50 [4] [µM] | IC50 [5] [µM] | IC50 [6] [µM] | IC50 [7] [µM] | IC50 [8] [µM] | IC50 (mutant B-RAF; [9]) [µM] | Compound | IC50 [2] [µM] | IC50 [3] [µM]
1 | 0.25 | 0.38 | 1.1 | 0.31 | 4.73 | 0.48 | 1.28 |  | COc1ccccc1-c1nc2sccn2c1-c1ccnc(N[C@@H]2CCCN(S(=O)(=O)c3ccc(Cl)cc3)C2)n1 [Example 105, N-{(3R)-1-[(4-chlorophenyl)sulfonyl]piperidin-3-yl}-4-[6-(2-methoxyphenyl)imidazo[2,1-b][1,3]thiazol-5-yl]pyrimidin-2-amine] | 6.68 | 2.72
2 | > 5 | 0.33 | 0.91 | 0.27 | 3.33 | 0.86 | 2.74 |  | COc1cccc(-c2nc3sccn3c2-c2ccnc(N[C@@H]3CCCN(C(=O)c4ccncc4)C3)n2)c1 [Example 112, N-[(3R)-1-isonicotinoylpiper-idin-3-yl]-4-[6-(3-methoxyphenyl)imidazo[2,1-b][1,3]thiazol-5-yl]pyrimidin-2-amine] | 4.71 | 2.24
3 | 0.031 | 0.19 | 0.87 | 0.27 | 1.76 | 0.38 | 2.13 |  | O=S(=O)(c1ccc(Cl)cc1)N1CCC(Nc2nccc(-c3c(-c4cccc(O)c4)nc4sccn34)n2)CC1 [Example 267, 3-{5-[2-({1-[(4-chlorophenyl)sulfonyl]piperidin-4-yl}amino)pyrimidin-4-yl]imidazo[2,1-b][1,3]thiazol-6-yl}phenol] | 2.05 | 1.07
4 | 0.009 | 0.36 | 1.33 | 0.37 | 4.03 | 0.8 | 4.4 |  | CCNC(=O)N1CCC(Nc2nccc(-c3c(-c4cccc(O)c4)nc4sccn34)n2)CC1 [Example 268, N-ethyl-4-({4-[6-(3-hydroxyphenyl)imidazo[2,1-b][1,3]thiazol-5-yl]pyrimidin-2-yl}amino)piperidine-1-carboxamide] | 2.54 | 0.72
5 | > 10 | 0.18 | 0.99 | 0.15 | 3.08 | 0.67 | 2.97 |  | O=C(c1ccc(F)cc1)N1CCC(Nc2nccc(-c3c(-c4ccc(F)cc4)nc4sccn34)n2)CC1 [Example 289, N-[1-(4-fluorobenzoyl)piperidin-4-yl]-4-[6-(4-fluorophenyl)imidazo[2,1-b][1,3]thiazol-5-yl]pyrimidin-2-amine] | 4.17 | 1.24
6 | 0.698 |  |  |  |  |  |  |  | O=S(=O)(c1ccc(Cl)cc1)N1CCC[C@@H](Nc2nccc(-c3c(-c4ccc(/C=N/O)cc4)nc4sccn34)n2)C1 [Example 392, 4-{5-[2-({(3R)-1-[(4-chlorophenyl)sulfonyl]piperidin-3-yl}amino)pyrimidin-4-yl]imidazo[2,1-b][1,3]thiazol-6-yl}benzaldehyde oxime] |  | 
7 | 0.33 |  |  |  |  |  |  |  | CCCS(=O)(=O)N1CCC[C@@H](Nc2nccc(-c3c(-c4cccc(O)c4)nc4occn34)n2)C1 [Example 393, 3-[5-(2-{[(3R)-1-(propylsulfonyl)piperidin-3-yl]amino}pyrimidin-4-yl)imidazo[2,1-b][1,3]oxazol-6-yl]phenol] |  | 
8 | > 3 |  |  |  |  |  |  |  | COC(=O)N1CCC(Nc2nccc(-c3c(-c4cccc(O)c4)nc4sccn34)n2)CC1 [Example 394, methyl 4-({4-[6-(3-hydroxyphenyl)imidazo[2,1-b][1,3]thiazol-5-yl]pyrimidin-2-yl}amino)piperidine-1-carboxylate] |  | 
9 | 0.018 |  |  |  |  |  |  |  | O=S(=O)(c1ccc(Cl)cc1)N1CCC[C@@H](Nc2nccc(-c3c(-c4cccc(/C=N\O)c4)nc4sccn34)n2)C1 [Example 395, 3-{5-[2-({(3R)-1-[(4-chlorophenyl)sulfonyl]piperidin-3-yl}amino)pyrimidin-4-yl]imidazo[2,1-b][1,3]thiazol-6-yl}benzaldehyde oxime] |  | 
10 | 1.6 |  |  |  |  |  |  |  | O=S(=O)(c1ccc(Cl)cc1)N1CCC[C@@H](Nc2nccc(-c3c(-c4cccc(CO)c4)nc4sccn34)n2)C1 [Example 396, (3-{5-[2-({(3R)-1-[(4-chlorophenyl)sulfonyl]piperidin-3-yl}amino)pyrimidin-4-yl]imidazo[2,1-b][1,3]thiazol-6-yl}phenyl)methanol] |  | 
11 |  |  |  |  |  |  |  | 2.3 | O=S(=O)(C1CC1)N1CCC[C@@H](Nc2nccc(-c3c(-c4cccc(O)c4)nc4occn34)n2)C1 [Example 397, 3-[5-(2-{[(3R)-1-(cyclopropylsulfonyl)piperidin-3-yl]amino}pyrimidin-4-yl)imidazo[2,1-b][1,3]oxazol-6-yl]phenol] |  | 
12 |  |  |  |  |  |  |  | 0.042 | O=S(=O)(c1ccccc1)N1CCC[C@@H](Nc2nccc(-c3c(-c4cccc(O)c4)nc4occn34)n2)C1 [Example 398, 3-[5-(2-{[(3R)-1-(phenylsulfonyl)piperidin-3-yl]amino}pyrimidin-4-yl)imidazo[2,1-b][1,3]oxazol-6-yl]phenol] |  | 
13 |  |  |  |  |  |  |  | > 3 | O=S(=O)(c1ccsc1)N1CCC[C@@H](Nc2nccc(-c3c(-c4cccc(O)c4)nc4occn34)n2)C1 [Example 399, 3-[5-(2-{[(3R)-1-(3-thienylsulfonyl)piperidin-3-yl]amino}pyrimidin-4-yl)imidazo[2,1-b][1,3]oxazol-6-yl]phenol] |  | 
14 |  |  |  |  |  |  |  | 1.3 | CC(=O)c1ccc(-c2nc3sccn3c2-c2ccnc(N[C@@H]3CCCN(S(=O)(=O)c4ccc(Cl)cc4)C3)n2)cc1 [Example 400, 1-(4-{5-[2-({(3R)-1-[(4-chlorophenyl)sulfonyl]piperidin-3-yl}amino)pyrimidin-4-yl]imidazo[2,1-b][1,3]thiazol-6-yl}phenyl)ethanone] |  | 
